Legend:
Caspase-1 = target: T1, Caspase-1 (Homo sapiens, UniProt P29466); experiment: Caspase-1 enzyme inhibition (Ki); format: biochemical; conditions: substrate Suc-YVAD-pNA 80 μM, 37° C., pH 7.5
T1 sequence (P29466 120-297 limits assumed): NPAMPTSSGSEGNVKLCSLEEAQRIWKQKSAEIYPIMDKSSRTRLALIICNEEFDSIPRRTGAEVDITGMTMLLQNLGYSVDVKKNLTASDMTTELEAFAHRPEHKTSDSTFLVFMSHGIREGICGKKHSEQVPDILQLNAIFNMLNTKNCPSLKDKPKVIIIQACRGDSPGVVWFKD
T1 sequence (P29466 317-404 limits assumed): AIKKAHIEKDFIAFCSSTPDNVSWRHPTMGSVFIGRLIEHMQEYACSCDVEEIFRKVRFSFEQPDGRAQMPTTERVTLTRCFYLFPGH
Experimental: Ki values for test compounds with the various caspases were obtained by the method of Margolin et al. (J. Biol. Chem., 272 pp. 7223-7228 (1997)). Assays were performed in 10 mM Tris (Sigma Corp, St Louis Mo.) pH 7.5, 1 mM Dithiothreitol (DTT, Research Organic INC, Cleveland, Ohio) and 0.1% CHAPS (Pierce, Rockford Ill.) at 37° C. For caspase-3, a solution of 8% glycerol was added to the assay buffer to improve enzyme stability. A 65 μL aliquot of the assay buffer and 5 μL aliquot of the appropriate dilutions of inhibitor in DMSO where pipetted into a 96 well plate, treated with 10 μL of caspase, then diluted in assay buffer (0.5-40 nM active protein by active site titration). A control containing DMSO but no compound was included for each determination. The plates were then incubated for 15 minutes at 37° C., before addition of the appropriate substrate (20 μL, final concentration 1-4×KM, final assay volume 100 μL) to initiate the reaction. Reaction rates were measured at 37° C. either by following the time dependant increase in absorbance at 405 nm (for the pNA substrates) or in fluorescence (Ex 390, Em 460) (for the AMC substrates). The rates obtained were plotted against inhibitor concentration and the data fit to the Morrison tight-binding equation for competitive inhibitors (Morrison, J. F., Biochem. Biophys. Acta, 185 pp. 269-286 (1969)). The substrates used for the individual assays were as follows:
Caspase-1 Suc-YVAD-pNA (Bachem, King of Prussia, Pa.) (final concentration in the assay 80 μM),

[1] = test system: Human whole blood, IL-1β production; experiment: Whole blood assay for IL-1β production; format: cell-based; conditions: LPS-stimulated whole blood, IL-1β by ELISA
Experimental: The whole blood assay is a simple method for measuring the production of IL-1β (or other cytokines) and the activity of potential inhibitors. The complexity of this assay system, with its full complement of lymphoid and inflammatory cell types, spectrum of plasma proteins and red blood cells is an ideal in vitro representation of human in vivo physiologic conditions.
Set incubator or water bath at 30° C. Aliquot 0.25 ml of blood into 1.5 ml eppendorf tubes. Note: be sure to invert the whole blood sample tubes after every two aliquots. Differences in replicates may result if the cells sediment and are not uniformly suspended. Use of a positive displacement pipette will also minimize differences between replicate aliquots.
Prepare drug dilutions in sterile pyrogen-free saline by serial dilution. A dilution series which brackets the apparent Ki for a test compound determined in an ICE inhibition assay is generally used for the primary compound screen. For extremely hydrophobic compounds, prepare compound dilutions in fresh plasma obtained from the same blood donor or in PBS-containing 5% DMSO to enhance solubility.
Add 25 μl test compound dilution or vehicle control and gently mix the sample. Then add 5.0 μl LPS solution (250 ng/ml stocked prepared fresh: 5.0 ng/ml final concentration LPS), and mix again. Incubate the tubes at […] in a water bath for 16-18 hr with occasional mixing. Alternatively, the tubes can be placed in a rotator set at 4 rpm for the same incubation period. This assay should be set up in duplicate or triplicate with the following controls: negative control—no LPS; positive control—no test inhibitor; vehicle control—the highest concentration of DMSO or compound solvent used in the experiment. Additional saline is added to all control tubes to normalize volumes for both control and experimental whole blood test samples.
After the incubation period, whole blood samples are centrifuged for 10 minutes at ^˜2000 rpm in the microfuge, plasma is transferred to a fresh microfuge tube and centrifuged at 1000×g to pellet residual platelets if necessary. Plasma samples may be stored frozen at −70° C. prior to assay for cytokine levels by ELISA.
R & D Systems (614 McKinley Place N.E. Minneapolis, Minn. 55413) Quantikine kits may be used for measurement of IL-1β and TNF-α. The assays are performed according to the manufacture's directions. IL-1β levels of ^˜1-5 ng/ml in positive controls among a range of individuals may be observed. A 1:200 dilution of plasma for all samples is usually sufficient for experiments for ELISA results to fall on the linear range of the ELISA standard curves. It may be necessary to optimize standard dilutions if you observe differences in the whole blood assay. Nerad, J. L. et al., J. Leukocyte Biol., 52, pp. 687-692 (1992).

| Compound | Ki (Caspase-1) | IC50 [1] |
| --- | --- | --- |
| C[C@H](NC(=O)c1ccc(Cl)c(Cl)c1)C(=O)N1CCC[C@H]1C(=O)N[C@H](C=O)CC(=O)O [Example 7aj] | < 10 nM | > 7500 nM |
| C[C@H](NC(=O)c1c(F)c(F)c(N)c(F)c1F)C(=O)N1CCC[C@H]1C(=O)N[C@H](C=O)CC(=O)O [Example 122p, 3-({1-[2-(4-Amino-2,3,5,6-tetrafluoro-benzoylamino)-propionyl]-pyrrolidine-2-carbonyl}-amino)-4-oxo-butyric acid] | < 10 nM | 2500 to 7500 nM |
| C[C@H](NC(=O)c1ccc2[nH]cnc2c1)C(=O)N1CC(F)(F)C[C@H]1C(=O)N[C@H](C=O)CC(=O)O [Example 27n] | 10 to 1000 nM | < 2500 nM |
| C[C@H](NC(=O)c1cc(Cl)c(O)c(Cl)c1)C(=O)N1CC(F)(F)C[C@H]1C(=O)N[C@H](C=O)CC(=O)O [Example 27g] | < 10 nM | 2500 to 7500 nM |
| C[C@H](NC(=O)c1cccc(C(F)(F)F)c1)C(=O)N1CCC[C@H]1C(=O)N[C@H](C=O)CC(=O)O [Example 7am] | < 10 nM | 2500 to 7500 nM |
| CC(C)[C@H](NC(=O)c1ccc(N)c(Cl)c1)C(=O)N1CC(F)(F)C[C@H]1C(=O)N[C@H](C=O)CC(=O)O [Example 27d] | < 10 nM | < 2500 nM |
| Cc1c(Cl)cccc1C(=O)N[C@@H](C)C(=O)N1CCC[C@H]1C(=O)N[C@H](C=O)CC(=O)O [Example 7ao] | 10 to 1000 nM | 2500 to 7500 nM |
| C[C@H](NC(=O)c1cccc(C(F)(F)F)c1)C(=O)N1CC(F)(F)C[C@H]1C(=O)N[C@H](C=O)CC(=O)O [Example 27m] | 10 to 1000 nM | 2500 to 7500 nM |
| Nc1ccc(C(=O)NCC(=O)N2CC(F)(F)C[C@H]2C(=O)N[C@H](C=O)CC(=O)O)cc1Cl [Example G2, 3-({1-[(4-Amino-3-chloro-benzoylamino)-acetyl]-4,4-difluoro-pyrrolidine-2-carbonyl}-amino)-4-oxo-butyric acid] | 10 to 1000 nM | 2500 to 7500 nM |
| COc1c(C)cc(C(=O)N[C@@H](C)C(=O)N2CC(F)(F)C[C@H]2C(=O)N[C@H](C=O)CC(=O)O)cc1C [Example 27i] | 10 to 1000 nM | 2500 to 7500 nM |
| CNc1ccc(C(=O)N[C@@H](C)C(=O)N2CCC[C@H]2C(=O)N[C@H](C=O)CC(=O)O)cc1Cl [Example 7aa] | < 10 nM | 2500 to 7500 nM |
| C[C@H](NC(=O)C(=O)c1ccccc1)C(=O)N1CCC[C@H]1C(=O)N[C@H](C=O)CC(=O)O [Example 7ap] | 10 to 1000 nM | > 7500 nM |
| CC(NC(=O)c1ccc(N)c(Cl)c1)C(=O)N1CC(F)CC1C(=O)NC(C=O)CC(=O)O (stereo not drawn) [Example 123a, 3-({1-[2-(4-Amino-3-chloro-benzoylamino)-propionyl]-4-fluoro-pyrrolidine-2-carbonyl}-amino)-4-oxo-butyric acid] | 10 to 1000 nM | < 2500 nM |
| C[C@H](NC(=O)c1ccc(F)c(Cl)c1)C(=O)N1CCC[C@H]1C(=O)N[C@H](C=O)CC(=O)O [Example 7ak] | < 10 nM | 2500 to 7500 nM |
| C[C@H](NC(=O)c1nccc2ccccc12)C(=O)N1CC(F)(F)C[C@H]1C(=O)N[C@H](C=O)CC(=O)O [Example 27l] | 10 to 1000 nM | 2500 to 7500 nM |
| CC(=O)Nc1ccc(C(=O)NC(C)C(=O)N2CC(F)(F)CC2C(=O)NC(C=O)CC(=O)O)cc1Cl (stereo not drawn) [Example 123b, 3-({1-[2-(4-Acetylamino-3-chloro-benzoylamino)-propionyl]-4,4-difluoro-pyrrolidine-2-carbonyl}-amino)-4-oxo-butyric acid] | 10 to 1000 nM | 2500 to 7500 nM |
| COc1ccc(C(=O)N[C@@H](C)C(=O)N[C@@H](C)C(=O)N[C@H](C=O)CC(=O)O)cc1 [Example 29s] | 10 to 1000 nM | < 2500 nM |
| C[C@H](NC(=O)c1cccc(C#N)c1)C(=O)N1CCC[C@H]1C(=O)N[C@H](C=O)CC(=O)O [Example 7ad] | 10 to 1000 nM | 2500 to 7500 nM |
| C[C@H](NC(=O)c1cccc(Cl)c1)C(=O)N1CCC[C@H]1C(=O)N[C@H](C=O)CC(=O)O [Example 7ah] | < 10 nM | 2500 to 7500 nM |
| C[C@H](NC(=O)c1ccc(N(C)C)c(Cl)c1)C(=O)N1CCC[C@H]1C(=O)N[C@H](C=O)CC(=O)O [Example 122m, 3-({1-[2-(3-Chloro-4-dimethylamino-benzoylamino)-propionyl]-pyrrolidine-2-carbonyl}-amino)-4-oxo-butyric acid] | 10 to 1000 nM | 2500 to 7500 nM |
| CC[C@H](NC(=O)c1ccc(N)c(Cl)c1)C(=O)N1CC(F)(F)C[C@H]1C(=O)N[C@H](C=O)CC(=O)O [Example 27e] | 10 to 1000 nM | < 2500 nM |
| C[C@H](NC(=O)c1cccc2ccccc12)C(=O)N1CC(F)(F)C[C@H]1C(=O)N[C@H](C=O)CC(=O)O [Example 27f] | 10 to 1000 nM | 2500 to 7500 nM |
| C[C@H](NC(=O)c1ccc2ncccc2c1)C(=O)N1CCC[C@H]1C(=O)N[C@H](C=O)CC(=O)O [Example 122q, 4-Oxo-3-[(1-{2-[(quinoline-6-carbonyl)-amino]-propionyl}-pyrrolidine-2-carbonyl)-amino]-butyric acid] | 10 to 1000 nM | 2500 to 7500 nM |
| Cc1ccc(Cl)cc1C(=O)N[C@@H](C)C(=O)N1CCC[C@H]1C(=O)N[C@H](C=O)CC(=O)O [Example 7an] | < 10 nM | 2500 to 7500 nM |
| C[C@H](NC(=O)c1cc(Cl)cc(Cl)c1)C(=O)N1CCC[C@H]1C(=O)N[C@H](C=O)CC(=O)O [Example 7ai] | < 10 nM | 2500 to 7500 nM |
| COc1c(Cl)cc(C(=O)N[C@@H](C)C(=O)N2CC(F)(F)C[C@H]2C(=O)N[C@H](C=O)CC(=O)O)cc1Cl [Example 27h] | 10 to 1000 nM | 2500 to 7500 nM |
| C[C@H](NC(=O)c1ccc(NC(=O)C(C)(C)C)c(Cl)c1)C(=O)N1CCC[C@H]1C(=O)N[C@H](C=O)CC(=O)O [Example 122s, 3-[(1-{2-[3-Chloro-4-(2,2-dimethyl-propionylamino)-benzoylamino]-propionyl}-pyrrolidine-2-carbonyl)-amino]-4-oxo-butyric acid] | 10 to 1000 nM | 2500 to 7500 nM |

Source: patent US20030232986A1, “Inhibitors of caspases” (Vertex Pharmaceuticals Incorporated, priority 1998, published 2003)
